Source: patent US20260224588A1, “BENZODIAZEPINONE-DERIVED INHIBITORS OF EGFR AND HER2” (The Research Foundation for the State University of New York, priority 2023, published 2026)
“Also recorded” adds a separate entry of the source.

Legend:
[1] = target: PIP5K1A (Homo sapiens, UniProt Q99755); experiment: KINOMEscan; type: binding; conditions: 1 μM of compound 4; read-out: POC
[2] = target: CSF1R-autoinhibited (Homo sapiens, UniProt P07333); experiment: KINOMEscan; type: binding; conditions: 1 μM of compound 4; read-out: POC
[3] = target: BMPR1B (Homo sapiens, UniProt O00238); experiment: KINOMEscan; type: binding; conditions: 1 μM of compound 4; read-out: POC
[4] = target: ADCK4 (Homo sapiens, UniProt Q96D53); experiment: KINOMEscan; type: binding; conditions: 1 μM of compound 4; read-out: POC
[5] = target: T1, WNK3 (Homo sapiens, UniProt Q9BYP7); experiment: KINOMEscan; type: binding; conditions: 1 μM of compound 4; read-out: POC
T1 construct: purchased Eurofins DiscoverX
T1 sequence (Q9BYP7 whole entry): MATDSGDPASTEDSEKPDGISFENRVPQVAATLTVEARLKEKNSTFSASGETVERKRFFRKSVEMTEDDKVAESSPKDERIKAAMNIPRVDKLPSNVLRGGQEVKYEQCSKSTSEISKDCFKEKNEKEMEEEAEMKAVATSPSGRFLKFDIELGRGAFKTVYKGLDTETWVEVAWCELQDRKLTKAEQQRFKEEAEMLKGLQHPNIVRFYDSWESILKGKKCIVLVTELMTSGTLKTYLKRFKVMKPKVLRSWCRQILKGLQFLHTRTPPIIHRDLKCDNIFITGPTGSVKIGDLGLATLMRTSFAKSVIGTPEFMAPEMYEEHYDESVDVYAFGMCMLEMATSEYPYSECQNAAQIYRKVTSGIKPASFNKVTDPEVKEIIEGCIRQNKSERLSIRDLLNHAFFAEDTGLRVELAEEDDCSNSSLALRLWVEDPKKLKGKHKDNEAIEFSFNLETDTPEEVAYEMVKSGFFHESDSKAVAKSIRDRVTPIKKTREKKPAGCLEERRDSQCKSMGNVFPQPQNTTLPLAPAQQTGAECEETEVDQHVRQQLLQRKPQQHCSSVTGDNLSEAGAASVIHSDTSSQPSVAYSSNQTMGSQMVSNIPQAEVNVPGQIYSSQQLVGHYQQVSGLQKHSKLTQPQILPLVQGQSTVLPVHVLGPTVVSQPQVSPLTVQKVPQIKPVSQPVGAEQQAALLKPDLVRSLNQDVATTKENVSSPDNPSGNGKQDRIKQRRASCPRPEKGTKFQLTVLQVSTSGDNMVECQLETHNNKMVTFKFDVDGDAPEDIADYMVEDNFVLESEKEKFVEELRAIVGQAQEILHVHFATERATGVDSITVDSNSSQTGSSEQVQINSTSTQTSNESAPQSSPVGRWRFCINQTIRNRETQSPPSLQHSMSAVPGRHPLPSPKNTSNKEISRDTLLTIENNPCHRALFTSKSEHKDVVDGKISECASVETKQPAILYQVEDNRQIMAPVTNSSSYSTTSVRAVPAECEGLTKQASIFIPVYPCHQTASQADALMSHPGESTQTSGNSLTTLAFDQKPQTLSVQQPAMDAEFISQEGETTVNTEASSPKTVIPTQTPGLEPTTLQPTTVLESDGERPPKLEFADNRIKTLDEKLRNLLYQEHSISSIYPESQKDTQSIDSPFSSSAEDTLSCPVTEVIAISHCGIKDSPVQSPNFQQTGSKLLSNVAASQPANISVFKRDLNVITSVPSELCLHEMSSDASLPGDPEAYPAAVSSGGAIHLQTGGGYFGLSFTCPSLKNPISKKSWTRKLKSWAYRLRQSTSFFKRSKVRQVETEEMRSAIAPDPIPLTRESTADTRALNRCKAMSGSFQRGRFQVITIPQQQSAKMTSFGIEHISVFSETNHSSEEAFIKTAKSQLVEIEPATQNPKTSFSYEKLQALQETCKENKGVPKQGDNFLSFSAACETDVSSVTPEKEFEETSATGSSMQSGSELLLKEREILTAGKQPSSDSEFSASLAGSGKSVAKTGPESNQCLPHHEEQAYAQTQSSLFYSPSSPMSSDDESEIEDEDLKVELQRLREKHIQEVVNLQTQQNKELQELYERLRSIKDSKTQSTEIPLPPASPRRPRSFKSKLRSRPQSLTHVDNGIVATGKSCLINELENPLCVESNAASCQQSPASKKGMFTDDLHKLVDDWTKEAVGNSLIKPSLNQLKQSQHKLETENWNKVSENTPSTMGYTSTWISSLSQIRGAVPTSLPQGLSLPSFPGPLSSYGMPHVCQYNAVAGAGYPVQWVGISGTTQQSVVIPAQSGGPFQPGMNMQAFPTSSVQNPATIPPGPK

[6] = target: NEK1 (Homo sapiens, UniProt Q96PY6); experiment: KINOMEscan; type: binding; conditions: 1 μM of compound 4; read-out: POC
[7] = target: AKT1 (Homo sapiens, UniProt P31749); experiment: KINOMEscan; type: binding; conditions: 1 μM of compound 4; read-out: POC
AKT1, sequence (P31749 whole entry): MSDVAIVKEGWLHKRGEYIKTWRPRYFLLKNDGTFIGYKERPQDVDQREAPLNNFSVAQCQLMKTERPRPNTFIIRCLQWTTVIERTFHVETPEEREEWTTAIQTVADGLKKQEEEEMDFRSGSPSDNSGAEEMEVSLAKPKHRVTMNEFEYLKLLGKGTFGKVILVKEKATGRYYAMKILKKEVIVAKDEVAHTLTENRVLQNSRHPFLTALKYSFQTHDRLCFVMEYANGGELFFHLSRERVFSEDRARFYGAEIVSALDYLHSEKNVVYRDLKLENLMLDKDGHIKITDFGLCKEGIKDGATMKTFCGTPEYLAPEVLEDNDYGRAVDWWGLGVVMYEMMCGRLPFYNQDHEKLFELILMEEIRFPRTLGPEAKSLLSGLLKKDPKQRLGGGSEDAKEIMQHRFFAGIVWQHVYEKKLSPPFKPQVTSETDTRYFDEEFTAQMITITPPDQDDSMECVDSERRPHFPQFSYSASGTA

[8] = target: CASK (Homo sapiens, UniProt O14936); experiment: KINOMEscan; type: binding; conditions: 1 μM of compound 4; read-out: POC
CASK, sequence (O14936 whole entry): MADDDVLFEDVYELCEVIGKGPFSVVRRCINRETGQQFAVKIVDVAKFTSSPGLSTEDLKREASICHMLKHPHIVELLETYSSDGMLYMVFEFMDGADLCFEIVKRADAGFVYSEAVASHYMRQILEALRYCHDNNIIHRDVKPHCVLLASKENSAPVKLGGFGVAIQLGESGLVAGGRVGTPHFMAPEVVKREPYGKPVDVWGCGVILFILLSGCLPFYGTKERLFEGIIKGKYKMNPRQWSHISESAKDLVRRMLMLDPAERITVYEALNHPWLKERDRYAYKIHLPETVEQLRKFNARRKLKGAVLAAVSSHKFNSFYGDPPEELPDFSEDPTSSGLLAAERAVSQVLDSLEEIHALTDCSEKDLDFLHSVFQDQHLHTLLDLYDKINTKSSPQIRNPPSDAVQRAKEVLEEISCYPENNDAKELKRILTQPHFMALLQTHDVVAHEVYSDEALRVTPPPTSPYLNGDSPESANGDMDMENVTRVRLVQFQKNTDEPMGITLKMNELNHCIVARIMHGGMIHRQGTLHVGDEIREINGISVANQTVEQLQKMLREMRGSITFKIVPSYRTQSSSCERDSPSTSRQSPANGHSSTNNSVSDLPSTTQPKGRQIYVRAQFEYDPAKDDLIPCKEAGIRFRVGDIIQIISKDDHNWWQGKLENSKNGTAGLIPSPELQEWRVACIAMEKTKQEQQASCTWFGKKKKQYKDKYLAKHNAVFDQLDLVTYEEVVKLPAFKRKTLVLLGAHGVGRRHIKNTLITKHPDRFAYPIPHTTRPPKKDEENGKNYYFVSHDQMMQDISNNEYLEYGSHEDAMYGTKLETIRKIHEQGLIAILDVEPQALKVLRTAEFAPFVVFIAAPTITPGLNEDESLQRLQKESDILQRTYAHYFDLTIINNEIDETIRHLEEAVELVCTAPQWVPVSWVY

[9] = target: DCAMKL1 (Homo sapiens, UniProt O15075); experiment: KINOMEscan; type: binding; conditions: 1 μM of compound 4; read-out: POC
[10] = target: T2, ABL1(T315I)-phosphorylated (Homo sapiens, UniProt P00519, T315I); experiment: KINOMEscan; type: binding; conditions: 1 μM of compound 4; read-out: POC
T2 construct: purchased Eurofins DiscoverX Corporation

[11] = target: MEK5 (Homo sapiens, UniProt Q13163); experiment: KINOMEscan; type: binding; conditions: 1 μM of compound 4; read-out: POC
MEK5, sequence (Q13163 whole entry): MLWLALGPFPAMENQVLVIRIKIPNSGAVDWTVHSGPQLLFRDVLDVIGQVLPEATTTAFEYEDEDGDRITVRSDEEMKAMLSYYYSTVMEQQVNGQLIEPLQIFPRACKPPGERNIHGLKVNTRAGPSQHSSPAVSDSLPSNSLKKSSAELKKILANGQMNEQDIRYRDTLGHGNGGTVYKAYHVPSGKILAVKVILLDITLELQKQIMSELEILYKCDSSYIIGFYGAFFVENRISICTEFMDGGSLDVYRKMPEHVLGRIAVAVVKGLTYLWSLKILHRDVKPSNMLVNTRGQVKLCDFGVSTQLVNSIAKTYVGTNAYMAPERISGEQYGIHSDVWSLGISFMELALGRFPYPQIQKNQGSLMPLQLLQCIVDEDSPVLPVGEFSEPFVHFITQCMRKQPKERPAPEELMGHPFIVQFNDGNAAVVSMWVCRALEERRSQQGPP

[12] = target: CDC2L5 (Homo sapiens, UniProt Q14004); experiment: KINOMEscan; type: binding; conditions: 1 μM of compound 4; read-out: POC
[13] = target: BMPR1A (Homo sapiens, UniProt P36894); experiment: KINOMEscan; type: binding; conditions: 1 μM of compound 4; read-out: POC
[14] = target: PIK3CA(E542K) (Homo sapiens, UniProt P42336, E542K); experiment: KINOMEscan; type: binding; conditions: 1 μM of compound 4; read-out: POC
[15] = target: T3, SRC (Homo sapiens, UniProt P12931); experiment: KINOMEscan; type: binding; conditions: 1 μM of compound 4; read-out: POC
T3 construct: purchased Eurofins DiscoverX (KINOMEscan service)

[16] = target: ALK(L1196M) (Homo sapiens, UniProt Q9UM73, L1196M); experiment: KINOMEscan; type: binding; conditions: 1 μM of compound 4; read-out: POC
[17] = target: T4, HIPK1 (Homo sapiens, UniProt Q86Z02); experiment: KINOMEscan; type: binding; conditions: 1 μM of compound 4; read-out: POC
T4 construct: purchased Eurofins DiscoverX Corporation

[18] = target: BRK (Homo sapiens, UniProt Q13882); experiment: KINOMEscan; type: binding; conditions: 1 μM of compound 4; read-out: POC
BRK, sequence (Q13882 whole entry): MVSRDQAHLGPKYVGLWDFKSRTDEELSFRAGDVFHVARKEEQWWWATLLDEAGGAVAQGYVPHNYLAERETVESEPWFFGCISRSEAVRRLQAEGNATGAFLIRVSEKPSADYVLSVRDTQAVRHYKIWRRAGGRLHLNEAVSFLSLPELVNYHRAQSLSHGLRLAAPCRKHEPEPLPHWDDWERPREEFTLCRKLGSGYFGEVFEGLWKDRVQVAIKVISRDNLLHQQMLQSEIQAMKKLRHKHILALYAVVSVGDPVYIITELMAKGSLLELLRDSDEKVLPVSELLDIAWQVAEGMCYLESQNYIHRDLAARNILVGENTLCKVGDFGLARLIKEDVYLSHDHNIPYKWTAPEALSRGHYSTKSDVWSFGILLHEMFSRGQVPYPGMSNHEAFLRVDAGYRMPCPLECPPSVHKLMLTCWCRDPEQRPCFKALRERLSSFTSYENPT

[19] = target: MEK3 (Homo sapiens, UniProt P46734); experiment: KINOMEscan; type: binding; conditions: 1 μM of compound 4; read-out: POC
[20] = target: CDKL2 (Homo sapiens, UniProt Q92772); experiment: KINOMEscan; type: binding; conditions: 1 μM of compound 4; read-out: POC
[21] = target: CTK (Homo sapiens, UniProt P42679); experiment: KINOMEscan; type: binding; conditions: 1 μM of compound 4; read-out: POC
CTK, sequence (P42679 whole entry): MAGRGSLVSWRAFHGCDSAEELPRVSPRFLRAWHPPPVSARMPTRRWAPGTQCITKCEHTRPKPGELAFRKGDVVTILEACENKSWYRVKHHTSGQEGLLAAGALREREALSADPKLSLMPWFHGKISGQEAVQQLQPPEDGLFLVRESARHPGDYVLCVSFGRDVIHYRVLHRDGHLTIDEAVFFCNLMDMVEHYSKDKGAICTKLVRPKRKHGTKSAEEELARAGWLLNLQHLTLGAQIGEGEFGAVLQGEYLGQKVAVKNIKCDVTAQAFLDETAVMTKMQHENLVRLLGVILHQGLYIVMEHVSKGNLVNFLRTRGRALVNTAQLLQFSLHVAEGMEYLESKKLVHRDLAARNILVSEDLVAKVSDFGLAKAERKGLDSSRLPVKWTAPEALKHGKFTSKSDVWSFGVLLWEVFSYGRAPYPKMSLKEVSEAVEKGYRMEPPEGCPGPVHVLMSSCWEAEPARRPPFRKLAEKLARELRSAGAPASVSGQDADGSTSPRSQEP

[22] = target: T5, FGFR1 (Homo sapiens, UniProt P11362); experiment: KINOMEscan; type: binding; conditions: 1 μM of compound 4; read-out: POC
T5 construct: purchased Eurofins DiscoverX Corporation

[23] = target: LTK (Homo sapiens, UniProt P29376); experiment: KINOMEscan; type: binding; conditions: 1 μM of compound 4; read-out: POC
[24] = target: MLK2 (Homo sapiens, UniProt Q02779); experiment: KINOMEscan; type: binding; conditions: 1 μM of compound 4; read-out: POC
[25] = target: T6, ABL1-nonphosphorylated (Homo sapiens, UniProt P00519); experiment: KINOMEscan; type: binding; conditions: 1 μM of compound 4; read-out: POC
T6 construct: purchased Eurofins DiscoverX Corporation

[26] = target: T7, RIOK1 (Homo sapiens, UniProt Q9BRS2); experiment: KINOMEscan; type: binding; conditions: 1 μM of compound 4; read-out: POC
T7 construct: purchased Eurofins DiscoverX Corporation (KINOMEscan screening service)

[27] = target: PKAC-alpha (Homo sapiens, UniProt P17612); experiment: KINOMEscan; type: binding; conditions: 1 μM of compound 4; read-out: POC
[28] = target: PIP5K1C (Homo sapiens, UniProt O60331); experiment: KINOMEscan; type: binding; conditions: 1 μM of compound 4; read-out: POC
[29] = target: T8, PAK7 (Homo sapiens, UniProt Q9P286); experiment: KINOMEscan; type: binding; conditions: 1 μM of compound 4; read-out: POC
T8 construct: purchased Eurofins DiscoverX Corporation (KINOMEscan)

[30] = target: T9, SGK2 (Homo sapiens, UniProt Q9HBY8); experiment: KINOMEscan; type: binding; conditions: 1 μM of compound 4; read-out: POC
T9 construct: purchased Eurofins DiscoverX (KINOMEscan service)
T9 sequence (Q9HBY8 whole entry): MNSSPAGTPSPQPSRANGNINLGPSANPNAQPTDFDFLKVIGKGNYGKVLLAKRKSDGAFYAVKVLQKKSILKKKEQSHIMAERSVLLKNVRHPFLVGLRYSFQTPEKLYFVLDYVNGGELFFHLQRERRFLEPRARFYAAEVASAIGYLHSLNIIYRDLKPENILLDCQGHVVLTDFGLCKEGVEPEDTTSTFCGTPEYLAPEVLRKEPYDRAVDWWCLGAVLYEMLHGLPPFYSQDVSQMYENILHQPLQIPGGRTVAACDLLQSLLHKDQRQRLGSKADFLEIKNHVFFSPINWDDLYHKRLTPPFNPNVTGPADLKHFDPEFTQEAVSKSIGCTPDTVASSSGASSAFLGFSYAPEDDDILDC

[31] = target: T10, p38-beta (Homo sapiens, UniProt Q15759); experiment: KINOMEscan; type: binding; conditions: 1 μM of compound 4; read-out: POC
T10 construct: purchased Eurofins DiscoverX Corporation (KINOMEscan)

[32] = target: PIK3CA(E545A) (Homo sapiens, UniProt P42336, E545A); experiment: KINOMEscan; type: binding; conditions: 1 μM of compound 4; read-out: POC
[33] = target: JAK1(JH2domain-pseudokinase) (Homo sapiens, UniProt P23458); experiment: KINOMEscan; type: binding; conditions: 1 μM of compound 4; read-out: POC
[34] = tested on: EGFR (delE746-A750) in HCC827 cells; experiment: Western blotting of EGFR phosphorylation; type: cell-based, human; conditions: 6 hours treatment
Description: FIG. 2. […] All experiments performed after 6 hours treatments of inhibitors or DMSO controls and Western blots are representative of at least three independent experiments.
Western blotting. Cells were collected and lysed with lysis buffer (5M NaCl, 1M TRIS pH 8.0, 10% SDS, 10% Triton X-100 and a tablet of protease inhibitors) and processed for Western blotting analysis. Primary antibodies used; phospho-EGFR (Tyr1068; #2234, 1:1,000), EGFR (#4267; 1:1,000), phospho-AKT (Ser473; #4060, 1:1,000), AKT (#9272, 1:1,000), phospho-ERK1/2 (Thr202/Tyr204; #4370, 1:1,000), and ERK1/2 (#4695, 1:1,000) antibodies; were purchased from Cell Signaling Technology. Secondary Goat anti-rabbit IgG starbright blue 700 and Anti-tubulin hFAB Rhodamine Tubulin were purchased from Bio-rad.

With `C=CC(=O)Nc1ccc(OC)c(Nc2cc(-c3[nH]c(CC)nc3-c3cccc(NC(=O)c4cccc5c4NC(=O)c4ccccc4N5)c3)ccn2)c1` [Compound 4, N-(3-(5-(2-((5-Acrylamido-2-methoxyphenyl)amino)pyridin-4-yl)-2-ethyl-1H-imidazol-4-yl)phenyl)-11-oxo-10,11-dihydro-5H-dibenzo[b,e][1,4]diazepine-9-carboxamide] the remaining binding at 1 µM [1] was 75%, the remaining binding at 1 µM [2] was 69% and the remaining binding at 1 µM [3] was 100%. The remaining binding at 1 µM [4] was 85%, the remaining binding at 1 µM [5] was 78% and the remaining binding at 1 µM [6] was 90%. The remaining binding at 1 µM [7] was 89%, the remaining binding at 1 µM [8] was 97% and the remaining binding at 1 µM [9] was 100%. The remaining binding at 1 µM [10] was 100%, the remaining binding at 1 µM [11] was 41% and the remaining binding at 1 µM [12] was 74%. The remaining binding at 1 µM [13] was 85%, the remaining binding at 1 µM [14] was 100% and the remaining binding at 1 µM [15] was 73%. For the same molecule, the remaining binding at 1 µM [16] was 89%, the remaining binding at 1 µM [17] was 51% and the remaining binding at 1 µM [18] was 96%. It also gave a remaining binding at 1 µM [19] of 100%, a remaining binding at 1 µM [20] of 100% and a remaining binding at 1 µM [21] of 54%. For the same molecule, the remaining binding at 1 µM [22] was 86%, the remaining binding at 1 µM [23] was 48% and the remaining binding at 1 µM [24] was 97%. The remaining binding at 1 µM [25] was 100%, the remaining binding at 1 µM [26] was 100% and the remaining binding at 1 µM [27] was 100%. It also gave a remaining binding at 1 µM [28] of 78%, a remaining binding at 1 µM [29] of 77% and a remaining binding at 1 µM [30] of 83%. It also gave a remaining binding at 1 µM [31] of 59%, a remaining binding at 1 µM [32] of 100% and a remaining binding at 1 µM [33] of 83%. For the same molecule, the “EGFR phosphorylation (Western blot)” value [34] was “similarly active; also recorded: effectively ablates EGFR (delE746-A750) phosphorylation”.
